Consider 24 compounds from patent US20230399312A1, “SUBSTITUTED PYRIMIDINES AND METHODS OF USE” (THERAVANCE BIOPHARMA R&D IP, LLC, priority 2020, published 2023).

Assay [1] concerns the target T1, recombinant human ALK5 (TGF-βR1) protein (Homo sapiens, UniProt P36897).
T1 construct: purchased Life Technologies PR9075A
T1 sequence (P36897 34-503): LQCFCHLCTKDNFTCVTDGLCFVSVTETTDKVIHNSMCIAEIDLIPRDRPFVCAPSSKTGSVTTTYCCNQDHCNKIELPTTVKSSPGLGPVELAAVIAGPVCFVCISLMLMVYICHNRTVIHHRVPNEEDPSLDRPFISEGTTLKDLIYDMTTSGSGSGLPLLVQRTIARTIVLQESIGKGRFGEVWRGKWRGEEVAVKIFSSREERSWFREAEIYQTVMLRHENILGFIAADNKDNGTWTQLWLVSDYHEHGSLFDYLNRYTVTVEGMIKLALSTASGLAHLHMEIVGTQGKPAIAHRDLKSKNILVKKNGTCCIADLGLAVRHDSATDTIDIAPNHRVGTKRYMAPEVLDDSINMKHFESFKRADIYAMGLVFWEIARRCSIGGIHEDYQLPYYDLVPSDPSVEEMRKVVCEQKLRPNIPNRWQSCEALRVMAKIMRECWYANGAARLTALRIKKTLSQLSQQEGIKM
Description: Biochemical ALK5 (TGF-βR1) assay to measure pKi (LANCE Ultra ULight kinase assay). The note with it: apparent pKi, converted from pIC50 by Cheng-Prusoff. In a few lines: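 Europium TR-FRET kinase assay: the enzyme is exposed to compound for 60 min at room temperature, and reaction with ATP runs 60 min at 37 °C. Percent inhibition relative to DMSO and SD-208 controls gives pIC50, which is converted to pKi.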
For orientation: In TR-FRET formats the signal depends on donor and acceptor labels being close together.

Assay [2] has as its system TGF-β-stimulated SMAD3 phosphorylation in BEAS-2B cells. Description: Cellular ALK5 potency assay, inhibition of TGF-β stimulated pSMAD3 formation in BEAS-2B cells. The format is cell-based. The note with it: Homo sapiens, pSMAD3, TGF-β 10 ng/mL, read-out: BEAS2B pIC50 (converted). In a few lines: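 Human lung epithelial BEAS-2B cells were preincubated 1 h at 37 °C with compound in HBSS/HEPES/1% BSA, then stimulated 30 min with 10 ng/mL TGF-β. pSMAD3 in lysates was quantified by AlphaLISA relative to untreated stimulated cells; reported as pIC50.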

Turning to `Cc1cccc(-c2nc(Nc3ccnc(Nc4ccc(N)cc4)n3)c3cccn3n2)n1` [Compound 1015, N2-(4-aminophenyl)-N4-[2-(6-methyl-2-pyridyl)pyrrolo[2,1-f][1,2,4]triazin-4-yl]pyrimidine-2,4-diamine], the Ki in assay [1] was 0.0398 to 0.316 nM. The IC50 in assay [2] was 25.1 to 158 nM.

On to `Cc1cccc(-c2nc(Nc3ccnc(Nc4ccc(NCC5CNC5)cc4)n3)c3cccn3n2)n1` [Compound 1016, N2-[4-(azetidin-3-ylmethylamino)phenyl]-N4-[2-(6-methyl-2-pyridyl)pyrrolo[2,1-f][1,2,4]triazin-4-yl]pyrimidine-2,4-diamine], for which the Ki in assay [1] is 0.0398 to 0.316 nM. Also, the IC50 in assay [2] was 25.1 to 158 nM.

With `Cc1cccc(-c2nc(Nc3ccnc(Nc4cccc(C(=O)O)c4)n3)c3cccn3n2)n1` [Compound 1017, 3-[[4-[[2-(6-methyl-2-pyridyl)pyrrolo[2,1-f][1,2,4]triazin-4-yl]amino]pyrimidin-2-yl]amino]benzoic acid], the Ki in assay [1] was 0.398 to 3.16 nM. Besides, the IC50 in assay [2] was 200 to 1260 nM.

As for `Cc1cccc(-c2nc(Nc3ccnc(Nc4ccc(CC(=O)O)cc4)n3)c3cccn3n2)n1` [Compound 1018, 2-[4-[[4-[[2-(6-methyl-2-pyridyl)pyrrolo[2,1-f][1,2,4]triazin-4-yl]amino]pyrimidin-2-yl]amino]phenyl]acetic acid], in assay [1], the Ki is 0.0398 to 0.316 nM. In addition, the IC50 in assay [2] was 25.1 to 158 nM.

Consider `COC(=O)Cc1ccc(Nc2nccc(Nc3nc(-c4cccc(C)n4)nn4cccc34)n2)cc1` [Compound 1019, methyl 2-[4-[[4-[[2-(6-methyl-2-pyridyl)pyrrolo[2,1-f][1,2,4]triazin-4-yl]amino]pyrimidin-2-yl]amino]phenyl]acetate], for which, in assay [1], the Ki is 0.398 to 3.16 nM. Also, in assay [2], the IC50 is 200 to 1260 nM.

On to `Cc1cccc(-c2nc(Nc3ccnc(Nc4ccc(C(=O)O)cn4)n3)c3cccn3n2)n1` [Compound 1020], for which the Ki in assay [1] was 3.98 to 31.6 nM. In assay [2], the IC50 was 200 to 1260 nM.

For `Cc1cccc(-c2nc(Nc3ccnc(Nc4ccc(C(=O)O)cc4)n3)c3cccn3n2)n1` [Compound 1021, 4-[[4-[[2-(6-methyl-2-pyridyl)pyrrolo[2,1-f][1,2,4]triazin-4-yl]amino]pyrimidin-2-yl]amino]benzoic acid], the Ki in assay [1] was 0.398 to 3.16 nM. In assay [2], the IC50 is 25.1 to 158 nM.

As to `Cc1cccc(-c2nc(Nc3ccnc(Nc4nc(C(=O)O)cs4)n3)c3cccn3n2)n1` [Compound 1022, 2-[[4-[[2-(6-methyl-2-pyridyl)pyrrolo[2,1-f][1,2,4]triazin-4-yl]amino]pyrimidin-2-yl]amino]thiazole-4-carboxylic acid], the Ki in assay [1] is 0.398 to 3.16 nM. In assay [2], the IC50 was 200 to 1260 nM.

In the case of `Cc1cccc(-c2nc(Nc3ccnc(Nc4csc(C(=O)O)c4)n3)c3cccn3n2)n1` [Compound 1023, 4-[[4-[[2-(6-methyl-2-pyridyl)pyrrolo[2,1-f][1,2,4]triazin-4-yl]amino]pyrimidin-2-yl]amino]thiophene-2-carboxylic acid], the Ki in assay [1] is 0.398 to 3.16 nM. Besides, the IC50 in assay [2] was 200 to 1260 nM.

Take `COC(=O)c1ccc(Nc2nccc(Nc3nc(-c4cccc(C)n4)nn4cccc34)n2)cn1` [Compound 1024, methyl 5-[[4-[[2-(6-methyl-2-pyridyl)pyrrolo[2,1-f][1,2,4]triazin-4-yl]amino]pyrimidin-2-yl]amino]pyridine-2-carboxylate]: the Ki in assay [1] is 0.0398 to 0.316 nM. In addition, the IC50 in assay [2] was 25.1 to 158 nM.

For the compound `Cc1cccc(-c2nc(Nc3ccnc(Nc4cc(C(=O)O)cs4)n3)c3cccn3n2)n1` [Compound 1025, 5-[[4-[[2-(6-methyl-2-pyridyl)pyrrolo[2,1-f][1,2,4]triazin-4-yl]amino]pyrimidin-2-yl]amino]thiophene-3-carboxylic acid], the Ki in assay [1] is 0.0398 to 0.316 nM. Besides, the IC50 in assay [2] is 25.1 to 158 nM.

As for `Cc1cccc(-c2nc(Nc3ccnc(Nc4ccc(NC(=O)C5CNC5)cc4)n3)c3cccn3n2)n1` [Compound 1026, N-[4-[[4-[[2-(6-methyl-2-pyridyl)pyrrolo[2,1-f][1,2,4]triazin-4-yl]amino]pyrimidin-2-yl]amino]phenyl]azetidine-3-carboxamide], the Ki in assay [1] is 0.0398 to 0.316 nM. Besides, in assay [2], the IC50 is 25.1 to 158 nM.

Turning to `Cc1cccc(-c2nc(Nc3ccnc(Nc4ccc(NC(=O)C5CCNC5)cc4)n3)c3cccn3n2)n1` (stereo not drawn) [Compound 1027, N-[4-[[4-[[2-(6-methyl-2-pyridyl)pyrrolo[2,1-f][1,2,4]triazin-4-yl]amino]pyrimidin-2-yl]amino]phenyl]pyrrolidine-3-carboxamide], the Ki in assay [1] was 0.0398 to 0.316 nM. Moreover, in assay [2], the IC50 is 25.1 to 158 nM.

As for `Cc1cccc(-c2nc(Nc3ccnc(Nc4ccc(NC(=O)C5CCNCC5)cc4)n3)c3cccn3n2)n1` [Compound 1028, N-[4-[[4-[[2-(6-methyl-2-pyridyl)pyrrolo[2,1-f][1,2,4]triazin-4-yl]amino]pyrimidin-2-yl]amino]phenyl]piperidine-4-carboxamide], in assay [1], the Ki is 0.0398 to 0.316 nM. Moreover, the IC50 in assay [2] is 25.1 to 158 nM.

`Cc1cccc(-c2nc(Nc3ccnc(Nc4ccc(NC(=O)CC5CNC5)cc4)n3)c3cccn3n2)n1` [Compound 1029, 2-(azetidin-3-yl)-N-[4-[[4-[[2-(6-methyl-2-pyridyl)pyrrolo[2,1-f][1,2,4]triazin-4-yl]amino]pyrimidin-2-yl]amino]phenyl]acetamide]: the Ki in assay [1] was 0.0398 to 0.316 nM. Further, in assay [2], the IC50 was 25.1 to 158 nM.

Consider `Cc1cccc(-c2nc(Nc3ccnc(Nc4ccc(NC(=O)[C@H]5C[C@@H](N)C5)cc4)n3)c3cccn3n2)n1` [Compound 1030, 3-amino-N-[4-[[4-[[2-(6-methyl-2-pyridyl)pyrrolo[2,1-f][1,2,4]triazin-4-yl]amino]pyrimidin-2-yl]amino]phenyl] cyclobutanecarboxamide], for which the Ki in assay [1] is 0.0398 to 0.316 nM. Moreover, the IC50 in assay [2] was 25.1 to 158 nM.

For the compound `Cc1cccc(-c2nc(Nc3ccnc(Nc4ccc(NC(=O)C5(CO)CNC5)cc4)n3)c3cccn3n2)n1` [Compound 1031, 3-(hydroxymethyl)-N-[4-[[4-[[2-(6-methyl-2-pyridyl)pyrrolo[2,1-f][1,2,4]triazin-4-yl]amino]pyrimidin-2-yl]amino]phenyl]azetidine-3-carboxamide], in assay [1], the Ki is 0.0398 to 0.316 nM. In addition, the IC50 in assay [2] is 25.1 to 158 nM.

On to `Cc1cccc(-c2nc(Nc3ccnc(Nc4ccc(NC(=O)C5CCCNC5)cc4)n3)c3cccn3n2)n1` (stereo not drawn) [Compound 1032, N-[4-[[4-[[2-(6-methyl-2-pyridyl)pyrrolo[2,1-f][1,2,4]triazin-4-yl]amino]pyrimidin-2-yl]amino]phenyl]piperidine-3-carboxamide], for which the Ki in assay [1] was 0.0398 to 0.316 nM. Besides, the IC50 in assay [2] is 25.1 to 158 nM.

Regarding `Cc1cccc(-c2nc(Nc3ccnc(Nc4ccc(C(=O)N5CCC6(CC5)CNC6)cc4)n3)c3cccn3n2)n1` [Compound 1033, 2,7-diazaspiro[3.5]nonan-7-yl-[4-[[4-[[2-(6-methyl-2-pyridyl)pyrrolo[2,1-f][1,2,4]triazin-4-yl]amino]pyrimidin-2-yl]amino]phenyl]methanone], in assay [1], the Ki is 0.0398 to 0.316 nM. The IC50 in assay [2] was 25.1 to 158 nM.

Turning to `Cc1cccc(-c2nc(Nc3ccnc(Nc4ccc(C(=O)NC5CNC5)cc4)n3)c3cccn3n2)n1` [Compound 1034, N-(azetidin-3-yl)-4-[[4-[[2-(6-methyl-2-pyridyl)pyrrolo[2,1-f][1,2,4]triazin-4-yl]amino]pyrimidin-2-yl]amino]benzamide], the Ki in assay [1] was 0.0398 to 0.316 nM. Also, the IC50 in assay [2] was 25.1 to 158 nM.

As for `Cc1cccc(-c2nc(Nc3ccnc(Nc4ccc(C(=O)NCC5CNC5)cc4)n3)c3cccn3n2)n1` [Compound 1035, N-(azetidin-3-ylmethyl)-4-[[4-[[2-(6-methyl-2-pyridyl)pyrrolo[2,1-f][1,2,4]triazin-4-yl]amino]pyrimidin-2-yl]amino]benzamide], the Ki in assay [1] was 0.0398 to 0.316 nM. Besides, the IC50 in assay [2] is 25.1 to 158 nM.

As for `Cc1cccc(-c2nc(Nc3ccnc(Nc4ccc(C(=O)NC5CCNC5)cc4)n3)c3cccn3n2)n1` (stereo not drawn) [Compound 1036, 4-[[4-[[2-(6-methyl-2-pyridyl)pyrrolo[2,1-f][1,2,4]triazin-4-yl]amino]pyrimidin-2-yl]amino]-N-pyrrolidin-3-yl-benzamide], the Ki in assay [1] is 0.0398 to 0.316 nM. Further, the IC50 in assay [2] is 25.1 to 158 nM.

Turning to `Cc1cccc(-c2nc(Nc3ccnc(Nc4ccc(C(=O)NC5CCNCC5)cc4)n3)c3cccn3n2)n1` [Compound 1037, 4-[[4-[[2-(6-methyl-2-pyridyl)pyrrolo[2,1-f][1,2,4]triazin-4-yl]amino]pyrimidin-2-yl]amino]-N-(4-piperidyl)benzamide], the Ki in assay [1] was 0.0398 to 0.316 nM. Also, the IC50 in assay [2] was 25.1 to 158 nM.

As for `Cc1cccc(-c2nc(Nc3ccnc(Nc4ccc(C(=O)N5CCNCC5)cc4)n3)c3cccn3n2)n1` [Compound 1038, [4-[[4-[[2-(6-methyl-2-pyridyl)pyrrolo[2,1-f][1,2,4]triazin-4-yl]amino]pyrimidin-2-yl]amino]phenyl]-piperazin-1-yl-methanone], the Ki in assay [1] is 0.0398 to 0.316 nM. Moreover, the IC50 in assay [2] is 25.1 to 158 nM.
